Reference: patent US8192962B2, “Processes for detecting toxic substances” (Daikin Industries, Ltd., priority 2001, dated 2012)

Tested on: Detoxification protein genes
Experiment: DNA chip mRNA expression in yeast, detoxification protein genes (Table 8)
Assay type: cell-based, Saccharomyces cerevisiae S288C
Outline: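 Ratios compare mRNA levels in stressed and control S. cerevisiae. Each toxicant was applied for two hours to log-phase cultures at 25° C. at a sub-lethal, growth-inhibiting level; fluorescent cDNA (Cy3- or Cy5-dUTP) was hybridized to a genome-wide yeast chip for over 12 h at 65° C.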

**Q.** How did the “The level of expressed mRNA in the presence of chemical substance/The level of expressed mRNA in the absence of chemical substance” value (yeast gene YBL064C) turn out when C=CC=O [(14), acrolein] was run?
**A.** 5.0

**Q.** And the “The level of expressed mRNA in the presence of chemical substance/The level of expressed mRNA in the absence of chemical substance” value (yeast gene YBR008C)?
**A.** 4.1

**Q.** And the “The level of expressed mRNA in the presence of chemical substance/The level of expressed mRNA in the absence of chemical substance” value (yeast gene YBR145W)?
**A.** 2.2

**Q.** And the “The level of expressed mRNA in the presence of chemical substance/The level of expressed mRNA in the absence of chemical substance” value (yeast gene YBR244W)?
**A.** 3.7

**Q.** What about the “The level of expressed mRNA in the presence of chemical substance/The level of expressed mRNA in the absence of chemical substance” value (yeast gene YBR293W) of the same molecule?
**A.** 1.4

**Q.** And the “The level of expressed mRNA in the presence of chemical substance/The level of expressed mRNA in the absence of chemical substance” value (yeast gene YCL035C)?
**A.** 2.5

**Q.** What about the “The level of expressed mRNA in the presence of chemical substance/The level of expressed mRNA in the absence of chemical substance” value (yeast gene YCL069W) of the same molecule?
**A.** 1.3

**Q.** What about the “The level of expressed mRNA in the presence of chemical substance/The level of expressed mRNA in the absence of chemical substance” value (yeast gene YCR083W) of the same molecule?
**A.** 2.4

**Q.** What about the “The level of expressed mRNA in the presence of chemical substance/The level of expressed mRNA in the absence of chemical substance” value (yeast gene YDL100C) of the same molecule?
**A.** 1.4

**Q.** What about the “The level of expressed mRNA in the presence of chemical substance/The level of expressed mRNA in the absence of chemical substance” value (yeast gene YDL168W) of the same molecule?
**A.** 1.6

**Q.** What about the “The level of expressed mRNA in the presence of chemical substance/The level of expressed mRNA in the absence of chemical substance” value (yeast gene YDR256C) of the same molecule?
**A.** 1.6

**Q.** And the “The level of expressed mRNA in the presence of chemical substance/The level of expressed mRNA in the absence of chemical substance” value (yeast gene YDR453C)?
**A.** 3.8

**Q.** And the “The level of expressed mRNA in the presence of chemical substance/The level of expressed mRNA in the absence of chemical substance” value (yeast gene YDR513W)?
**A.** 2.0

**Q.** And the “The level of expressed mRNA in the presence of chemical substance/The level of expressed mRNA in the absence of chemical substance” value (yeast gene YDR538W)?
**A.** 0.9

**Q.** And the “The level of expressed mRNA in the presence of chemical substance/The level of expressed mRNA in the absence of chemical substance” value (yeast gene YEL027W)?
**A.** 1.4

**Q.** And the “The level of expressed mRNA in the presence of chemical substance/The level of expressed mRNA in the absence of chemical substance” value (yeast gene YEL065W)?
**A.** 0.4

**Q.** What about the “The level of expressed mRNA in the presence of chemical substance/The level of expressed mRNA in the absence of chemical substance” value (yeast gene YER185W) of the same molecule?
**A.** 1.6

**Q.** And the “The level of expressed mRNA in the presence of chemical substance/The level of expressed mRNA in the absence of chemical substance” value (yeast gene YFL050C)?
**A.** 1.0

**Q.** What about the “The level of expressed mRNA in the presence of chemical substance/The level of expressed mRNA in the absence of chemical substance” value (yeast gene YGL013C) of the same molecule?
**A.** 0.8

**Q.** What about the “The level of expressed mRNA in the presence of chemical substance/The level of expressed mRNA in the absence of chemical substance” value (yeast gene YGL254W) of the same molecule?
**A.** 1.3

**Q.** What about the “The level of expressed mRNA in the presence of chemical substance/The level of expressed mRNA in the absence of chemical substance” value (yeast gene YGR088W) of the same molecule?
**A.** 1.3

**Q.** And the “The level of expressed mRNA in the presence of chemical substance/The level of expressed mRNA in the absence of chemical substance” value (yeast gene YGR138C)?
**A.** 0.9

**Q.** What about the “The level of expressed mRNA in the presence of chemical substance/The level of expressed mRNA in the absence of chemical substance” value (yeast gene YGR197C) of the same molecule?
**A.** 1.5

**Q.** And the “The level of expressed mRNA in the presence of chemical substance/The level of expressed mRNA in the absence of chemical substance” value (yeast gene YGR209C)?
**A.** 5.0

**Q.** What about the “The level of expressed mRNA in the presence of chemical substance/The level of expressed mRNA in the absence of chemical substance” value (yeast gene YGR224W) of the same molecule?
**A.** 0.9

**Q.** What about the “The level of expressed mRNA in the presence of chemical substance/The level of expressed mRNA in the absence of chemical substance” value (yeast gene YHL040C) of the same molecule?
**A.** 1.1

**Q.** What about the “The level of expressed mRNA in the presence of chemical substance/The level of expressed mRNA in the absence of chemical substance” value (yeast gene YHL047C) of the same molecule?
**A.** 0.5

**Q.** And the “The level of expressed mRNA in the presence of chemical substance/The level of expressed mRNA in the absence of chemical substance” value (yeast gene YHR008C)?
**A.** 1.6

**Q.** And the “The level of expressed mRNA in the presence of chemical substance/The level of expressed mRNA in the absence of chemical substance” value (yeast gene YHR048W)?
**A.** 1.7

**Q.** And the “The level of expressed mRNA in the presence of chemical substance/The level of expressed mRNA in the absence of chemical substance” value (yeast gene YHR053C)?
**A.** 1.5

**Q.** And the “The level of expressed mRNA in the presence of chemical substance/The level of expressed mRNA in the absence of chemical substance” value (yeast gene YHR055C)?
**A.** 1.5

**Q.** And the “The level of expressed mRNA in the presence of chemical substance/The level of expressed mRNA in the absence of chemical substance” value (yeast gene YIR002C)?
**A.** 1.1

**Q.** And the “The level of expressed mRNA in the presence of chemical substance/The level of expressed mRNA in the absence of chemical substance” value (yeast gene YIR038C)?
**A.** 2.5

**Q.** What about the “The level of expressed mRNA in the presence of chemical substance/The level of expressed mRNA in the absence of chemical substance” value (yeast gene YJL101C) of the same molecule?
**A.** 1.0

**Q.** What about the “The level of expressed mRNA in the presence of chemical substance/The level of expressed mRNA in the absence of chemical substance” value (yeast gene YJR104C) of the same molecule?
**A.** 2.0

**Q.** What about the “The level of expressed mRNA in the presence of chemical substance/The level of expressed mRNA in the absence of chemical substance” value (yeast gene YKL026C) of the same molecule?
**A.** 1.8

**Q.** And the “The level of expressed mRNA in the presence of chemical substance/The level of expressed mRNA in the absence of chemical substance” value (yeast gene YKL064W)?
**A.** 1.1

**Q.** What about the “The level of expressed mRNA in the presence of chemical substance/The level of expressed mRNA in the absence of chemical substance” value (yeast gene YKR066C) of the same molecule?
**A.** 1.5

**Q.** And the “The level of expressed mRNA in the presence of chemical substance/The level of expressed mRNA in the absence of chemical substance” value (yeast gene YKR105C)?
**A.** 1.2

**Q.** What about the “The level of expressed mRNA in the presence of chemical substance/The level of expressed mRNA in the absence of chemical substance” value (yeast gene YKR106W) of the same molecule?
**A.** 1.7

**Q.** And the “The level of expressed mRNA in the presence of chemical substance/The level of expressed mRNA in the absence of chemical substance” value (yeast gene YLL028W)?
**A.** 0.7

**Q.** What about the “The level of expressed mRNA in the presence of chemical substance/The level of expressed mRNA in the absence of chemical substance” value (yeast gene YLL057C) of the same molecule?
**A.** 1.1

**Q.** And the “The level of expressed mRNA in the presence of chemical substance/The level of expressed mRNA in the absence of chemical substance” value (yeast gene YLL060C)?
**A.** 10.6

**Q.** And the “The level of expressed mRNA in the presence of chemical substance/The level of expressed mRNA in the absence of chemical substance” value (yeast gene YLR043C)?
**A.** 2.1

**Q.** What about the “The level of expressed mRNA in the presence of chemical substance/The level of expressed mRNA in the absence of chemical substance” value (yeast gene YLR046C) of the same molecule?
**A.** 1.3

**Q.** And the “The level of expressed mRNA in the presence of chemical substance/The level of expressed mRNA in the absence of chemical substance” value (yeast gene YML028W)?
**A.** 2.0

**Q.** And the “The level of expressed mRNA in the presence of chemical substance/The level of expressed mRNA in the absence of chemical substance” value (yeast gene YML116W)?
**A.** 2.0

**Q.** And the “The level of expressed mRNA in the presence of chemical substance/The level of expressed mRNA in the absence of chemical substance” value (yeast gene YMR015C)?
**A.** 0.8

**Q.** What about the “The level of expressed mRNA in the presence of chemical substance/The level of expressed mRNA in the absence of chemical substance” value (yeast gene YMR038C) of the same molecule?
**A.** 1.1

**Q.** What about the “The level of expressed mRNA in the presence of chemical substance/The level of expressed mRNA in the absence of chemical substance” value (yeast gene YNL239W) of the same molecule?
**A.** 1.3

**Q.** And the “The level of expressed mRNA in the presence of chemical substance/The level of expressed mRNA in the absence of chemical substance” value (yeast gene YNL241C)?
**A.** 1.1

**Q.** And the “The level of expressed mRNA in the presence of chemical substance/The level of expressed mRNA in the absence of chemical substance” value (yeast gene YNL259C)?
**A.** 1.4

**Q.** And the “The level of expressed mRNA in the presence of chemical substance/The level of expressed mRNA in the absence of chemical substance” value (yeast gene YOL158C)?
**A.** 1.0

**Q.** And the “The level of expressed mRNA in the presence of chemical substance/The level of expressed mRNA in the absence of chemical substance” value (yeast gene YOR031W)?
**A.** 1.5

**Q.** What about the “The level of expressed mRNA in the presence of chemical substance/The level of expressed mRNA in the absence of chemical substance” value (yeast gene YOR153W) of the same molecule?
**A.** 0.3

**Q.** What about the “The level of expressed mRNA in the presence of chemical substance/The level of expressed mRNA in the absence of chemical substance” value (yeast gene YOR247W) of the same molecule?
**A.** 0.4

**Q.** What about the “The level of expressed mRNA in the presence of chemical substance/The level of expressed mRNA in the absence of chemical substance” value (yeast gene YOR251C) of the same molecule?
**A.** 1.1

**Q.** What about the “The level of expressed mRNA in the presence of chemical substance/The level of expressed mRNA in the absence of chemical substance” value (yeast gene YOR273C) of the same molecule?
**A.** 0.5

**Q.** And the “The level of expressed mRNA in the presence of chemical substance/The level of expressed mRNA in the absence of chemical substance” value (yeast gene YPL163C)?
**A.** 0.6

**Q.** And the “The level of expressed mRNA in the presence of chemical substance/The level of expressed mRNA in the absence of chemical substance” value (yeast gene YPR200C)?
**A.** 2.0
